Data published in US20160263130A1, “PHARMACEUTICAL COMPOSITION FOR PREVENTING OR TREATING LIVER DISEASES, CONTAINING PLASMALOGEN PRECURSOR, PLASMALOGEN OR PLASMALOGEN ANALOG AS EFFECTIVE COMPONENT” (UNIVERSITY OF ULSAN FOUNDATION FOR INDUSTRY COOPERATION, priority 2013, published 2016).

Key:
Type in all cases: in vivo, C57/BL6 male mice
[1] = tested on: mice that were allowed to take high fat diet (HFD); test: High fat diet (HFD) hepatic steatosis animal model; conditions: HFD mixed with 200 mg/kg/day (AG-200), 12 weeks, FIG. 6
Excerpt: Although a MCDD animal model is a model that represents nonalcoholic steatohepatitis occurrence, the MCDD animal model cannot represent a risk factor that accompanies metabolic syndrome. In order to overcome such limitation, liver tissues of mice that were allowed to take high fat diet (HFD) as a general animal model with respect to hepatic steatosis were used for the comparison.
The animal model only had simple hepatic steatosis without inflammation unlike the MCDD group.
Alkoxy glycerol, as a plasmalogen precursor, was added to the HFD feed that induces obesity and non-alcoholic hepatic steatosis, and the feed was administrated to the animal model, and the change was confirmed.
First, the control group (CON) was prepared by allowing 7-week-old C57/BL6 male mice to take a general feed including 7% of fat, 18% of protein, and 75% of carbohydrate, and the HFD group was prepared by allowing 7-week-old C57/BL6 male mice to freely take a HFD feed including 60% of fat, 18% of protein, and 22% of carbohydrate.
Also, the AG group (AG-200) was allowed to take the HFD mixed with 200 mg/kg/day of alkoxy glycerol. The experimental groups were allowed to take the corresponding feeds for the total of 12 weeks, and liver histological changes in the livers were confirmed in the same manner in Example 4, and the plasma ALT levels were confirmed in the same manner as in Example 1.

[2] = tested on: mice treated with methionine-choline deficient diet (MCDD); test: Plasma ALT measurement in MCD diet steatohepatitis mice; conditions: MCD diet together with 100 mg/kg/day, 6 weeks, vs MCDD group, FIG. 1
Protocol: (§1) A methionine-choline deficient (MCD) feed to induce steatohepatitis was purchased from Dyets (Bethlehem, Pa., USA). Alkoxy glycerol (batyl alcohol), as a plasmalogen precursor, was purchased from Sigma (St Louis, Mo., USA).
(§2) 2% BSA was prepared in a DMEM:F12 medium, and plasmalogen precursor alkoxy glycerol dissolved in ethanol was added thereto After incubation at 70° C. for 20 minutes, the mixture was inoculated in a manner of observing crystal disappearance. 7-week-old C57/BL6 male mice were brought in to an experimental animal room, stabilized for 7 days, and then separated into a general feed group, as a control group, an MCD diet group (an MCDD group), and a group taken a mixture of MCD diet and 100 mg/kg/day of plasmalogen precursor alkoxy glycerol (an AG group), where each of the groups had six mice. The test feeds were taken for the total of 6 weeks, and the mice were allowed to only take water for the following 12 hours. Then, blood samples were obtained from the mice, and liver tissues were harvested from each of the mice. […]
Blood samples were obtained from venae cavae of the experimental animals, the plasma was separated from the blood samples by using a centrifuge (at 300 rpm for 15 minutes), and alanine aminotransferase (ALT) of the plasma was measured by using a kit of Labs Biotechnology (London, Canada). […]

[3] = tested on: tumor necrosis factor (TNF-α) and monocyte chemotactic protein-1 (MCP-1) gene expression; test: Inflammatory cytokine gene expression in liver tissue by real-time PCR, MCD diet mice; conditions: MCD diet with 100 mg/kg/day, 6 weeks, FIG. 3
Protocol: as §1
(§3) 2% BSA was prepared in a DMEM:F12 medium, and plasmalogen precursor alkoxy glycerol dissolved in ethanol was added thereto After incubation at 70° C. for 20 minutes, the mixture was inoculated in a manner of observing crystal disappearance. 7-week-old C57/BL6 male mice were brought in to an experimental animal room, stabilized for 7 days, and then separated into a general feed group, as a control group, an MCD diet group (an MCDD group), and a group taken a mixture of MCD diet and 100 mg/kg/day of plasmalogen precursor alkoxy glycerol (an AG group), where each of the groups had six mice. The test feeds were taken for the total of 6 weeks, and the mice were allowed to only take water for the following 12 hours. Then, blood samples were obtained from the mice, and liver tissues were harvested from each of the mice. The harvested liver tissues were instantly rapid-frozen in dry ice and stored with plasma in a freezer at −70° C.
In order to confirm change in an inflammation degree of liver tissues, gene expression of a tumor necrosis factor (TNF-α) and monocyte chemotactic protein-1 (MCP-1), which are typical inflammatory cytokines, were confirmed by real-time PCR.

[4] = tested on: mice treated with methionine-choline deficient diet (MCDD); test: Neutral fats (triglyceride) in liver tissue of MCD diet mice; conditions: MCD diet together with 100 mg/kg/day, 6 weeks, FIG. 2
Protocol: as §1, §2
Neutral fats in the liver tissue was measured by using a triglyceride (GPO-Trinder) kit purchased from Sigma. […] Then, a triglyceride reagent A was added thereto, allowed to react at room temperature for 5 minutes, and the measurement was performed by using an Emax precision micro plate reader (Molecular Devices, Sunnyvale, Calif.) at 540 nm.

[5] = tested on: mice treated with methionine-choline deficient diet (MCDD); test: Liver histological observation (H&E, trichrome C), MCD diet mice; conditions: FIG. 4
Protocol: as §1
as §3, with “−70° C. […]” for “−70° C.”
The segment was died with hematoxylin-eosin (H&E) and trichrome C, and examined and analyzed by using an optical microscope.

CCCCCCCCCCCCCCCCCCOCC(O)CO (centres unmarked) [alkoxy glycerol, batyl alcohol]
hepatic steatosis occurrence (liver histology) [1]: significant improvement
lipid content in the liver tissues [1]: significant improvement
plasma ALT level [1]: remarkable reduction
change in plasma ALT [2]: significantly improvement
expression of inflammatory cytokine genes (TNF-α, MCP-1) in liver tissue [3]: suppressed expression of inflammatory cytokine genes
change in amount of neutral fats of liver tissues [4]: significantly improvement
steatohepatitis, H&E and trichrome C histology ([5]; MCD diet with 100 mg/kg/day, 6 weeks): relieved to the similar level with that of the control group
liver fibrosis ([5]; MCDD together with alkoxy glycerol): significant improvement
